Entries after “also recorded” stand apart in the source; their conditions may differ.
Key:
rat PC12 neuronal cells = test: MTT assay, Aβ1-42-induced cytotoxicity in PC12 cells (Example I); conditions: MTT
human NT2 cells = test: Trypan blue dye exclusion assay, NT2 cells; type: cell-based; conditions: 25 μM steroid, 72 hours
Protocol: (§1) Rat PC12 cells were cultured as previously described. Yao et al., Brain Res. 889, 181-190 (2001). Human NT2 precursor (Ntera2/D1 teratocarcinoma) cells were obtained from Stratagene (La Jolla, Calif.) and cultured following the instructions of the supplier. Differentiated human NT2 neurons (NT2N) were obtained after treatment of the NT2 precursor cells with retinoic acid. Andrews, Dev. […] Aβ was dissolved in media and used either in the aggregated (left overnight at 4° C.) or soluble (containing oligomers such as dimers and tetramers) forms examined by electrophoresis as previously described. Yao et al., Brain Res. (2001). […] Id. Cell viability was measured using the trypan blue exclusion method as previously described. Id. In brief, for these studies, cells were treated for 72 hours with steroids in the presence or absence of increasing concentrations of Aβ. At the end of the incubation, the cells were washed three times with PBS and incubated for 15 minutes with 0.1% trypan blue stain solution at room temperature. After washing three times with PBS, 0.1 N NaOH was added to the cells and trypan blue staining was quantified using the Victor quantitative detection spectrophotometer (EGG-Wallac, Gaithersburg, Md.) at 450 nm. Cell protein levels were determined in the same samples by the method of Bradford (Bradford, Anal. Biochem., 72, 248-254 (1976)), where coomassie blue staining is detected at 590 nm.
(§2) The results obtained from using MTT assay were further confirmed with the trypan blue dye exclusion assay. […] Levels of viability were measured using the trypan blue assay as described under Materials and Methods. Results are expressed as fold trypan blue stained cells per total cell protein over control untreated cells. Results shown are means±SD (n=6-12).

rat PC12 cells = test: Trypan blue dye exclusion assay, PC12 cells (Example I); type: cell-based; conditions: 100 μM steroid, 72 hours
Protocol: as §1, §2

NT2 cells [1] = test: NT2 cell differentiation, phase-contrast morphology; type: cell-based, human; conditions: 25 μM; 3, 6 and 12 days (comparators 6 days)
Aβ = target: T1, Aβ (Homo sapiens, UniProt P05067); test: CPBBA displacement of radiolabeled 22R-hydroxycholesterol from Aβ (Example II); type: binding; conditions: 100 μM unlabeled compound; 50 μM Aβ
T1 construct: Aβ1-42 peptide was purchased from American Peptide Co; purchased American Peptide Co. (Sunnyvale, Calif.)
T1 sequence (P05067 672-713): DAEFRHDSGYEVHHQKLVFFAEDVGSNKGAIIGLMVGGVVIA
Protocol: At the end of the incubation time, samples were separated by 1.5% agarose (Type I-B) gel electrophoresis under native conditions and transferred to nitrocellulose membrane (Schleicher&Schuell, Keene, N.H.) in 10×SSC buffer. The membrane was exposed to tritium-sensitive screen and analyzed by phosphoimaging using the Cyclone Storage phosphor system (Packard BioScience). Image-densitometric analysis was performed using the OptiQuant software (Packard BioScience). […] Low molecular weight unincorporated 22R-hydroxycholesterol and derivatives are separated and eliminated during electrophoresis.

[2] = system: PC12 cells (rat pheochromocytoma neurons); test: MTT cytotoxicity assay, Aβ-induced neurotoxicity in PC12 cells (Example II); type: cell-based; conditions: for neuroprotection against Aβ-induced neurotoxicity (structure/activity discussion): PC12 cells; for neuroprotective effect compared with SP222 / neuroprotection against 0.1 μM Aβ-induced neurotoxicity / neuroprotection against 10 μM Aβ-induced neurotoxicity / neuroprotection against 1 μM Aβ-induced neurotoxicity: MTT; for neuroprotective effect compared with SP222: 0.1 μM Aβ; for neuroprotection against 0.1 μM Aβ-induced neurotoxicity / neuroprotection against 10 μM Aβ-induced neurotoxicity / neuroprotection against 1 μM Aβ-induced neurotoxicity: compounds at 30 and 50 μM, 72 hours
Protocol: (§3) PC12 cells (rat pheochromocytoma neurons) from ATCC (Manassas, Va.) were cultured at 37° C. and 5% CO2 in RPMI 1640 medium devoid of glutamine and supplemented with 10% fetal bovine serum and 5% horse serum. Yao Z, Drieu K and Papadopoulos V., The Gingko biloba extract EGb 761 rescues PC12 neuronal cells from β-amyloid-induced cell death by inhibiting the formation of (3-amyloid-derived diffusible neurotoxic ligands, Brain Res, 889, 181-190 (2001). Cells were seeded in 96-well plates (8×10^4 cells/well). After an overnight period of incubation, increasing concentrations of aggregated Aβ (0.1, 1 and 10 μM) were added to the cells in the presence or absence of the indicated concentrations of the SP compounds to be tested. After 72-hours incubation time various parameters, markers of cell viability, were determined. Mouse MA-10 tumor Leydig cells were maintained at 37° C. in DMEM/Ham's F12 (Biofluids, Rockville, Md.) medium supplemented with 5% heat-inactivated fetal calf serum and 2.5% horse serum in 5% CO2. Cells were plated on 96-well plates at the density of 2.5×10^4 cells/well for overnight. The cells were stimulated with the indicated concentrations of the various SP compounds in 0.2 ml/well serum-free medium for 2 hours. The culture medium was collected and tested for progesterone production by radioimmunoassay.
The cellular toxicity of Aβ was assessed using the 3-(4,5-dimethylthiazol-2-yl)-2,5-diphenyl tetrazolium bromide (MTT) assay (Trevigen, Gaithersburg, Md.). Briefly, 10 μl of the MTT solution were added to the cells cultured in 100 μl medium. After an incubation period of 4 hours, 100 μl of detergent were added and cells were incubated overnight at 37° C. Formazan blue formation was quantified at 600 nm and 690 nm using the Victor quantitative detection spectrophotometer (EGG-Wallac, Gaithersburg, Md.) and the results expressed as (DO600-DO690). […] Liu Y and Schubert D, Steroid hormones block amyloid fibril-induced 3-(4,5-dimethylthiazol-2-yl)-2,5-diphenyltetrazolium bromide (MTT) formazan exocytosis: relationship to neurotoxicity, J. Neurochem., 19, 1639-1662 (1998). For that reason, additional cytotoxicity and cell viability assays were used.
Yao et al., J. Neurochem., 83, 1110-1119 (2002); and Yao et al., The Gingko biloba extract EGb 761 rescues PC12 neuronal cells from β-amyloid-induced cell death by inhibiting the formation of β-amyloid-derived diffusible neurotoxic ligands, Brain Res., 889, 181-190 (2001). To stay close to the concentrations of Aβ present in AD brain, 0.1-10 μM concentrations of Aβ were used. The compounds tested for their neuroprotective properties were examined at 30 and 50 μM concentrations (FIGS. 9-15).

PC12 cells [3] = test: Cellular ATP levels (ATPLite-M) in Aβ-treated PC12 cells; type: cell-based, rat; conditions: 0.1 and 1.0 μM Aβ
Protocol: as §3
Cellular ATP concentrations were measured using the ATPLite-M™ luminescence assay (Packard BioSciences Co.). For this assay, cells were cultured on black 96-well ViewPlate™ and the ATP concentrations were measured on a TopCount NXT™ counter (Packard BioSciences Co.) following the recommendations of the manufacturer.

PC12 cells [4] = test: Membrane potential (CytoLite luminescence) in Aβ-treated PC12 cells; type: cell-based, rat; conditions: 10 μM Aβ
Protocol: as §3
Cells viability was also assessed using the luminescence-based kit CytoLite™ (Packard BioScience Co.) according to the recommendations of the manufacturer. Briefly, cells were cultured and treated in 96-well plates and after 72-hours incubation time, 25 μl of Activator solution was added to the cells followed by 150 μl of Amplifier solution. Luminescence was measured on a TopCount NXT™ counter (Packard BioSciences Co.) following a 5 minute precount delay.

NT2 cells [5] = test: BrdU assay, NT2 cell proliferation; type: cell-based, human; conditions: 50 μM

In the case of `CC(=O)[C@@]1(O)CC[C@H]2[C@@H]3CC=C4C[C@@H](O)CC[C@]4(C)[C@H]3CC[C@@]21C` [17α-hydroxypregnenolone, 5-pregnen-3β, 17α-diol-20-one], the “PC12 cell viability, steroid alone” value (rat PC12 neuronal cells; absence of Aβ) is reported as “toxic to the cells”.

In the case of `C[C@]12CC[C@H](O)CC1=CC[C@@H]1[C@@H]2CC[C@]2(C)C(=O)CC[C@@H]12` [DHEA, 5-androsten-3β-ol-17-one], the “PC12 cell viability, steroid alone at 100 μM” value (rat PC12 neuronal cells; 100 μM steroid) is reported as “positive effect on cell viability”, the “rescue from Aβ1-42-induced cell death” value (human NT2 cells) is reported as “had no effect” and the “rescue from Aβ25-35-induced cell death” value (human NT2 cells) is reported as “Neither 22R-hydroxycholesterol nor DHEA could rescue”. For the same molecule, the “rescue from Aβ1-42-induced cell death” value (rat PC12 cells) was “protected”, the “rescue from Aβ25-35-induced cell death” value (rat PC12 cells) was “Neither 22R-hydroxycholesterol nor DHEA could rescue” and the “effect on NT2 cell morphology (differentiation)” value (NT2 cells [1]) was “could not be replicated”.

For `CC1CCC2(OC1)OC1CC3C4CC=C5CC(O)C(O)CC5(C)C4CCC3(C)C1C2C` [SP227, (22R,25ζ)-(20α)-spirost-5-en-(2α,3ζ)-diol], the “displacement of radiolabeled 22R-hydroxycholesterol binding to Aβ” value (“displacement” below) (Aβ) was 38%.

For `C[C@H]1CC[C@@]2(OC1)O[C@H]1C[C@H]3[C@@H]4CC=C5CC(O)CC[C@]5(C)[C@H]4CC[C@]3(C)[C@H]1[C@@H]2C` (stereo partly drawn) [SP231, (22R,25S)-(20ζ)-spirost-5-en-3ζ-ol], the “neuroprotection against Aβ-induced neurotoxicity (structure/activity discussion)” value [2] was “only SP235 is protective”.

`CC1CCC2(OC1)OC1CC3C4CC=C5CC(OC(=O)c6ccccc6)CCC5(C)C4CCC3(C)C1C2C` [SP232, (22R,25ζ)-(20α)-spirost-5-en-3β-yl benzoate] was tested, and the “neuroprotection against Aβ-induced neurotoxicity (structure/activity discussion)” value [2] was “not effective in neuroprotection”.

In the case of `C[C@H]1CC[C@@]2(OC1)O[C@H]1C[C@H]3[C@@H]4CC=C5C[C@@H](O)CC[C@]5(C)[C@H]4CC[C@]3(C)[C@H]1[C@@H]2C` [SP235, (22R,25S)-(20α)-spirost-5-en-3β-ol], the “neuroprotective effect compared with SP222” value [2] is reported as “significantly more robust effect than SP222”, the “neuroprotection against 0.1 μM Aβ-induced neurotoxicity” value [2] is reported as “displayed neuroprotective activity” and the “neuroprotection against 10 μM Aβ-induced neurotoxicity” value [2] is reported as “exhibited neuroprotective activity”. For the same molecule, the “neuroprotection against Aβ-induced neurotoxicity (structure/activity discussion)” value [2] was “limited neuroprotection acting only against 0.1 μM Aβ” and the “reversal of Aβ-induced decrease in ATP levels” value (“reversal of Aβ-induced decrease” below) (PC12 cells [3]) was “did not block”.

With `CC(=O)OC1CC[C@@]2(C)C(=CC[C@H]3[C@@H]4CC(OC(C)=O)[C@H]([C@H](C)C(CCC(C)CN(C(C)=O)C(C)=O)OC(C)=O)[C@@]4(C)CC[C@@H]32)C1` (stereo partly shown) [SP237, 26-diacetylamino-(22ζ)-acetoxy-(16ζ)-acetoxy-cholest-5-en-yl acetate] the “displacement” value (Aβ) was 46% and the “neuroprotection against 0.1 μM Aβ-induced neurotoxicity” value [2] was “displayed neuroprotective activity”.

With `CCC(=O)O[C@H]1CC[C@@]2(C)C(=CC[C@H]3[C@@H]4C[C@@H]5O[C@@]6(CC[C@H](C)CN6C(C)=O)[C@@H](C)[C@@H]5[C@@]4(C)CC[C@@H]32)C1` [SP238, (20α)-25S-methyl-N-acetyl-(22S,26)-azacyclofurost-5-en-3β-yl propanoate] the “displacement” value (Aβ) was 44%, the “neuroprotective effect against 10 μM Aβ, membrane potential luminescence” value (PC12 cells [4]) was “replicated by the raise of the signal” and the “neuroprotective effect compared with SP222” value [2] was “significantly more robust effect than SP222”. The “neuroprotection against 0.1 μM Aβ-induced neurotoxicity” value [2] was “displayed neuroprotective activity”, the “neuroprotection against 1 μM Aβ-induced neurotoxicity” value [2] was “maintained their neuroprotective properties” and the “neuroprotection against 10 μM Aβ-induced neurotoxicity” value [2] was “kept this property; also recorded: exhibited neuroprotective activity”. The “neuroprotection against Aβ-induced neurotoxicity (structure/activity discussion)” value [2] was “able to protect PC12 cells” and the “reversal of Aβ-induced decrease” value (PC12 cells [3]) was “did not block; also recorded: no effect on maintaining ATP levels”.

`CC(C)CCC[C@@H](C)[C@H]1CC[C@H]2[C@@H]3CC=C4C[C@@H](O)CC[C@]4(C)[C@H]3CC[C@]12C` [cholesterol, 5-cholesten-3β-ol] was tested, and the “effect on toxicity of low concentrations of Aβ” value (rat PC12 neuronal cells) was “accentuated the toxic effect of low concentrations of Aβ”, the “neuroprotective effect against Aβ-induced neurotoxicity” value (rat PC12 neuronal cells; Aβ1-42) was “could not be replicated” and the “effect on NT2 cell morphology (differentiation)” value (NT2 cells [1]) was “could not be replicated”.

With `CC(=O)[C@H]1CC[C@H]2[C@@H]3CCC4=CC(=O)CC[C@]4(C)[C@H]3CC[C@]12C` [progesterone] the “effect on NT2 cell morphology (differentiation)” value (NT2 cells [1]) was “could not be replicated” and the “NT2 cell proliferation at 50 μM” value (NT2 cells [5]) was “significantly inhibited”.

With “(20α)-25ζ-methyl-N-paratoluenesulfonyl-(22R,26)-azacyclofurost-5-en-3ζ-yl paratoluenesulfonate [SP229]” the “neuroprotection against 0.1 μM Aβ-induced neurotoxicity” value [2] was “displayed neuroprotective activity”.

For “(20ζ)-25ζ-methyl-N-acetyl-(22R,26)-azacyclofurost-5-en-3ζ-ol [SP226]”, the “displacement” value (Aβ) was 65% and the “neuroprotection against Aβ-induced neurotoxicity (structure/activity discussion)” value [2] was “did not offer neuroprotection”.

For “(20ζ)-26-acetylamino-(22ζ)-ethoxyfurost-5-en-3ζ-yl acetate [SP228]”, the “neuroprotection against 0.1 μM Aβ-induced neurotoxicity” value [2] was “displayed neuroprotective activity”.

With “(22R,25S)-(20α)-spirost-5-en-3β-yl succinate [SP236]” the “neuroprotective effect compared with SP222” value [2] was “significantly more robust effect than SP222”, the “neuroprotection against 0.1 μM Aβ-induced neurotoxicity” value [2] was “displayed neuroprotective activity” and the “neuroprotection against 1 μM Aβ-induced neurotoxicity” value [2] was “maintained their neuroprotective properties”. The “neuroprotection against 10 μM Aβ-induced neurotoxicity” value [2] was “exhibited neuroprotective activity”, the “neuroprotection against Aβ-induced neurotoxicity (structure/activity discussion)” value [2] was “active against higher Aβ concentrations” and the “reversal of Aβ-induced decrease” value (PC12 cells [3]) was “able to reverse; also recorded: blocked, although in part”.

Source: US20060009433A1, “Neuroprotective spirostenol pharmaceutical compositions” (priority 2003, published 2006)
